Here are results for 5 compounds from ChEMBL document CHEMBL1201862, “PubChem BioAssay data set” (2004).

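Growth conditions: 96-well plates. Treatment: test compound, 48 hours, 5 concentrations. Analysis: linear interpolation between bracketing concentrations; unreached endpoints set to highest concentration. Here, GI50 denotes the concentration required for 50% inhibition of growth.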 Calls of active or inactive are those of the source. Rule as the data show it: active = GI50 up to about 1.1 µM and inactive = higher.

Test systems include A549; SK-OV-3; SW-620; T47D; NCI-H226; SNB-19; Malme-3M; MCF7; OVCAR-8; LOX IMVI; KM12; SN12C; Hs-578T; MDA-MB-435; HCC 2998; HCT-15; OVCAR-5; PC-3; SNB-75; IGROV-1.
What all share (test): growth of human tumour cells (NCI), 48 h

In the case of `CC1(C)CC(C#Cc2ccccc2)CC(C)(C)N1O`, the GI50 with A549 was 22.5 µM (inactive); with SK-OV-3 it was 27.1 µM (inactive); with SW-620, 19.6 µM (inactive); in the assay with T47D, 16 µM (inactive); in the assay on NCI-H226, 20.9 µM (inactive); in the assay on SNB-19, 30.5 µM (inactive). In addition, the GI50 in the assay on Malme-3M is 16.8 µM (inactive); in the assay on MCF7 it was 16.5 µM (inactive); with OVCAR-8, 20.7 µM (inactive); with LOX IMVI, 15.5 µM (inactive); with KM12, 17.3 µM (inactive); with SN12C, 15.1 µM (inactive). Besides, the GI50 with Hs-578T was 19 µM (inactive); in the assay on MDA-MB-435, 21.6 µM (inactive); in the assay with HCC 2998, 16.3 µM (inactive); in the assay with HCT-15, 14.9 µM; with OVCAR-5, 22.1 µM (inactive); with PC-3, 11.6 µM (inactive). Moreover, the GI50 was 16.9 µM (inactive) with SNB-75 and 29.9 µM (inactive) in the assay on IGROV-1.
With `COP(=O)(CC(=O)C1OC(OCc2ccccc2)C(OCc2ccccc2)C(OCc2ccccc2)C1OCc1ccccc1)OC` (stereo not given), the GI50 with A549 is 5.57 µM (inactive); in the assay on SK-OV-3, 27.8 µM (inactive); with SW-620, 12.8 µM (inactive); in the assay on T47D, 4.3 µM (inactive); in the assay with NCI-H226, 4.91 µM (inactive); in the assay with SNB-19, 11.4 µM (inactive). The GI50 is 9.1 µM (inactive) in the assay on Malme-3M; 4.74 µM (inactive) in the assay on MCF7; 5.87 µM (inactive) in the assay on OVCAR-8; 11 µM (inactive) in the assay with LOX IMVI; 4.16 µM (inactive) in the assay on KM12; 3 µM (inactive) in the assay on SN12C. Besides, the GI50 in the assay with Hs-578T is 23.9 µM (inactive); in the assay on MDA-MB-435, 5.38 µM (inactive); in the assay on HCC 2998, 3.32 µM (inactive); with HCT-15, 4.83 µM; with OVCAR-5, 17.6 µM (inactive); in the assay on PC-3, 5.01 µM (inactive). Further, the GI50 with SNB-75 was 7.76 µM (inactive); in the assay with IGROV-1, 13.3 µM (inactive).
For the compound `C=C1C(=O)OC2C1CCC(=C)C1CC(O)C(=C)C12` (stereo not given), the GI50 is 23.8 µM (inactive) with A549; 33.8 µM (inactive) with SK-OV-3; 16 µM (inactive) in the assay with SW-620; 20.7 µM (inactive) in the assay on T47D; 27.1 µM (inactive) in the assay on NCI-H226; 23.8 µM (inactive) in the assay on SNB-19. Also, the GI50 with Malme-3M was 14.3 µM (inactive); in the assay with MCF7 it was 7.43 µM (inactive); in the assay with OVCAR-8 it was 24.9 µM (inactive); with LOX IMVI, 7.52 µM (inactive); in the assay on KM12, 13.7 µM (inactive); in the assay on SN12C it was 16.2 µM (inactive). Further, the GI50 in the assay with Hs-578T was 36.9 µM (inactive); with MDA-MB-435 it was 19.5 µM (inactive); with HCC 2998, 14.3 µM (inactive); with HCT-15, 10.8 µM; in the assay with OVCAR-5 it was 11.5 µM (inactive); in the assay with PC-3 it was 13.4 µM (inactive). Moreover, the figures for the GI50 in the assay with SNB-75 and in the assay on IGROV-1 were 19.7 µM (inactive) and 14 µM (inactive), respectively.
Turning to `Cc1ccc2c(c1)CC1(Cc3c(C)cccc3C1=O)C2=O` (stereo not given), the GI50 is > 100 µM (inactive) in the assay with A549; 76.2 µM (inactive) with SK-OV-3; > 100 µM (inactive) in the assay with SW-620; > 100 µM (inactive) in the assay with T47D; > 100 µM (inactive) in the assay with NCI-H226; 37.6 µM (inactive) in the assay on SNB-19. For the same compound, the GI50 with Malme-3M, in the assay on MCF7, with OVCAR-8, in the assay on LOX IMVI, in the assay with KM12 and in the assay with SN12C was > 100 µM (inactive) throughout. Moreover, the GI50 with Hs-578T was 22.6 µM (inactive); in the assay with MDA-MB-435, > 100 µM (inactive); with HCC 2998, > 100 µM (inactive); in the assay on HCT-15 it was greater than 100 µM; in the assay with OVCAR-5, > 100 µM (inactive); in the assay on PC-3, > 100 µM (inactive). Besides, the GI50 in the assay on SNB-75 was 36.7 µM (inactive); in the assay with IGROV-1, > 100 µM (inactive).
`C[n+]1c(-c2ccc(/C=N/NC(=O)c3ccc(C(=O)N/N=C/c4ccc(-c5cn6ccccc6[n+]5C)cc4)cc3)cc2)cn2ccccc21`: the GI50 with A549, in the assay on SK-OV-3, with SW-620, with T47D, in the assay on NCI-H226 and in the assay on SNB-19 was > 100 µM (inactive) each time. The GI50 was > 54.6 µM (inactive) in the assay on Malme-3M; > 100 µM (inactive) in the assay on MCF7; > 100 µM (inactive) in the assay on OVCAR-8; > 100 µM (inactive) in the assay on LOX IMVI; > 100 µM (inactive) in the assay with KM12; > 100 µM (inactive) in the assay on SN12C. Further, the GI50 in the assay on Hs-578T was > 100 µM (inactive); with MDA-MB-435, > 75.7 µM (inactive); with HCC 2998, > 100 µM (inactive); with HCT-15 it was greater than 100 µM; with OVCAR-5 it was > 100 µM (inactive); in the assay on PC-3, > 100 µM (inactive). The GI50 in the assay with SNB-75 and in the assay on IGROV-1 was > 100 µM (inactive) in each case.
